Data as given in patent publication EP2165698B1, “Cosmetic composition designed to protect damaged skin” (Universkin, priority 2008, dated 2016).
Where a SMILES comes first, the peptide text is derived from it.

Key:
[1] = test system: kératinocytes de lignée NCTC
[2] = test system: Fibroblastes de lignée MRC5
[3] = test system: fibroblastes de lignée humaine; test: Production of extracellular matrix (MEC) proteins by fibroblasts, immunofluorescence / confocal microscopy; conditions: tripeptide-1 à 10^-7M vs culture without peptide
Source text: Exemple 1 Etude du tripeptide-1® sur la production de protéines de la MEC par les fibroblastes par immunofluorescence.
• ▪ Matériel : fibroblastes de lignée humaine. • ▪ Protocole : les fibroblastes sont mis en culture en présence ou en absence du tripeptide-1® à 10^-7M. • ▪ Etude microscopique par microscopie confocale.

Row | SMILES | acide EPA dans les cellules de kératinocytes [1] | acide alpha-linolénique dans le surnageant [1] | acide alpha-linolénique dans les cellules de kératinocytes [1] | acides EPA et DHA dans le surnageant [1] | acide alpha-linolénique dans le surnageant [2] | acides EPA et DHA dans le milieu surnageant [2] | AUGMENTATION % - Collagène de type I [3] | AUGMENTATION % - Collagène de type II [3] | AUGMENTATION % - Elastine [3] | AUGMENTATION % - Fibronectine [3] | AUGMENTATION % - Laminine [3]
1 | CC/C=C\C/C=C\C/C=C\CCCCCCCC(=O)O [acide alpha-linolénique] | apparition de l'acide EPA | aucune trace | quantités importantes | Apparition des acides EPA et DHA | plus faible quantité que la quantité de départ | Apparition des acides EPA et DHA |  |  |  |  | 
2 | NCCCC[C@H](NC(=O)[C@H](Cc1c[nH]cn1)NC(=O)CN)C(=O)O [tripeptide-1, H-Gly-His-Lys-OH] (H-Gly-His-Lys-OH) |  |  |  |  |  |  | + 305% | + 105% | + 15% | + 155% | + 85%
